From patent US12006302B2, “Tau PET imaging ligands” (Janssen Pharmaceutica NV, priority 2016, dated 2024)

Columns and labels:
[1] = target: extracted human tau aggregates (Homo sapiens, UniProt P10636); test: competitive radioligand binding assay, [3H]-T808 displacement
Experimental: Briefly, frozen human AD brain samples (˜10 g) were homogenized with 10 vol of cold homogenization buffer (10 mM Tris, 800 mM NaCl, 1 mM EGTA, 10% sucrose, pH 7.4 containing PhosSTOP phosphatase and cOmplete EDTA-free protease inhibitor (Roche, Vilvoorde, Belgium)) on ice. After centrifugation at 27 000×g for 20 min at 4° C. the supernatant was recovered and 1% (w/v) N-lauroylsarcosine and 1% (v/v) 2-mercaptoethanol were added. The N-lauroylsarcosine/2-mercaptoethanol supernatant was incubated for 2 h at 37° C. while shaking on an orbital shaker. Subsequently, ultracentrifugation at 108 000×g for 1.5 h at room temperature enriched aggregated tau in the pellet. Supernatant was removed and the pellet was carefully rinsed twice with a small amount of TBS (50 mM Tris, 150 mM NaCl, pH 7.4). […]
Briefly, aggregated tau preps were diluted to 100 μg protein/mi in PBS buffer with 5% ethanol. […] After overnight drying of the filter plate, Microscint O liquid (Perkin Elmer) was added and the amount of radiolabeled ligand bound to the fibrils is measured by liquid scintillation counting in a Topcount instrument (Packard Instrument Company, Connecticut, USA).
(§1) Values for half-maximal inhibitory concentration (IC50) were determined from displacement curves of at least two independent experiments using GraphPad Prism software (GraphPad Software, San Diego, CA).

[2] = target: T1, extracted human amyloid-beta aggregates (Homo sapiens, UniProt P05067); test: competitive radioligand binding assay, [3H]-AV-45 displacement
T1 construct: amyloid plaques which form by aggregation of beta-amyloid peptide; from tissue; host or cells: human AD brain, occipital cortex with high amyloid plaque load
Experimental: Enriched aggregated β-amyloid preps were prepared from frozen human AD brain samples (10 g—occipital cortex with high amyloid plaques load) that were homogenized with 7-fold vol of cold homogenization buffer (250 mM sucrose, 20 mM Tris base, 1 mM EDTA, 1 mM EGTA and PhosSTOP phosphatase and cOmplete EDTA-free protease inhibitor) on ice. After centrifugation at 27 000×g for 20 min at 4° C. cell debris was removed. Supernatant containing amyloid plaques was aliquoted and stored at −80° C.
The competitive radioligand binding assays measure the binding of a radiolabeled reference ligand in the presence of a dose response concentration range of test compounds.
as §1
To determine compound binding to aggregated β-amyloid a similar assay was put in place but with some minor modifications. […] Nonspecific binding was determined in the presence of 500 μM Thioflavin T. After 150 min incubation at room temperature, the binding mixtures were filtered over GF/B glass filters. […]

[3] = test system: NFTs / cortical tau-rich regions; test: digital autoradiography with [18F]Co. No. 1 on human AD visual cortex slices, with blocking; assay type: binding
Experimental: Adjacent slices were immunostained for tau pathology (B, AT8) and for amyloid beta pathology (C, 4G8).
a) Air-dried frozen, 10-μm-thick slices of the visual cortex of an AD-patient (with Braak stage V-VI) were incubated for 60 min with [^18F]Co. No. 1 (7.4 kBq/500 μL per slice) and subsequently washed with mixtures of PBS and ethanol as described elsewhere (Xia C. F., Arteaga J., Chen G., et al. Alzheimer's Dement. 2013, 1-11). To assess specificity of binding, slices were incubated with tracer in the presence of 1 μM of authentic T808 or Co. No. 1. After drying, slices were exposed to a phosphor storage screen (super-resolution screen, Perkin Elmer). Screens were read in a Cyclone Plus system (Perkin Elmer, Waltham, MA, U.S.A.) and analyzed using Optiquant software. Results are expressed as digital light units per square mm (DLU/mm^2). Adjacent AD slices were immunostained with anti-tau (AT8) and anti-Aβ antibodies (4G8), to correlate with [^18F]Co. No. 1 binding.

MAO = test: in vitro binding of tritiated tracers to MAO-rich human tissue (striatum); settings: cold compound 10 μM; 10 nM [3H]-THK-5351
Experimental: The tracer was tested at 10 nM and higher concentrations were not investigated in this study.
In comparison, the tau tracer [^3H]-THK-5351 and the Aβ tracer [^3H]-AV-45 were used as THK-5351 is known to also bind MAO.

[4] = test system: tau pathology in human AD slices; test: [18F]Co. No. 1 binding to human AD tissue in the presence of MAO binders; settings: 0.2 mCi/mL tracer; for effect on [18F]Co. No. 1 binding pattern in human AD slices: compound 10 μM
Experimental: c) Binding of [^18F] Co. No. 1 to human AD tissue was assessed in the presence of reported MAO binders. […] This binding pattern was maintained when the sample was incubated with 10 μM of clorgiline, a strong irreversible MAO binder with moderate selectivity for the A-subtype (FIG. 7B), or 10 μM selegiline (=deprenyl), a strong irreversible MAO-B binder (FIG. 7C). The binding of [^18F] […] Adjacent AD slices were immunostained with anti-tau (AT8) and anti-Aβ (4G8) antibodies to correlate with [^18F]Co. No. 1 binding (FIG. 8).

[5] = microPET imaging, Wistar rats; assay type: in vivo, Wistar rat; settings: for SUV value at 60 min p.i. (brain wash-out) / initial brain uptake, high intensity SUV value in the brain: baseline scan, whole brain; for initial brain uptake, high intensity SUV value in the brain: IV about 50 MBq; for effect of pre-treatment / chase with cold compound on brain uptake: pre-treatment 10 mg/kg SC 60 min before, chase 1 mg/kg IV 30 min after tracer
Experimental: Three separate studies are shown: a baseline scan (only tracer), a pre-treatment experiment (cold Co. No. 1 or T807, 10 mg/kg injected subcutaneously 60 min prior to radiotracer injection), and a chase study (cold Co. No. 1 or T807, 1 mg/kg injected intravenously 30 min after radiotracer injection).
A dynamic 120-min μPET scan with [^18F]Co. No. 1 or [^18F]T807 was acquired on a Focus 220 μPET scanner (Concorde Microsystems, Knoxville, TN, U.S.A.) on three female Wistar rats simultaneously. The rats were kept under gas anaesthesia during the whole procedure (2.5% isoflurane in O2 at 1 L/min flow rate). Scans were acquired in list mode and acquisition data were Fourier rebinned in 24 time frames (4×15 s, 4×60 s, 5×180 s, 8×300 s, 3×600 s). Data, which were 3D maximum a posteriori (3D-MAP) reconstructed, were manually aligned with a rat brain ^18F-FDG template in Paxinos coordinates using an affine transformation, to allow predefined volumes of interest (VOIs) analysis (Casteels C., et al. J. Nucl. Med. 2006, 47, 1858-1866). Time-activity curves (TACs) of the whole brain were generated using VOIs with PMOD software (v 3.2, PMOD Technologies, Zürich, Switzerland). Radioactivity concentration in the brain was expressed as standardized uptake value (SUV, calculated as (radioactivity in Bq in brain/mL)/(total injected dose (Bq)/body weight in g)) as a function of time after tracer injection. Scans were started immediately after IV injection of about 50 MBq radiotracer (n=3/tracer). For pre-treatment and displacement studies, cold reference compound Co. No. 1 or T807 was dissolved in a mixture of 5% DMSO, 5% Tween 80 and 40% (2-hydroxypropyl)-β-cyclodextrin, filtered through a 0.22-μm membrane filter (Millex-GV. Millipore) prior to injection. Pre-treatment (n=1) was done by subcutaneous (SC) injection of 10 mg/kg of Co. No. 1 or T807, 60 min prior to radiotracer injection. Displacement (n=1) was performed by IV injection of 1 mg/kg Co. No. 1 or T807 30 min after radiotracer injection. μPET images were compared to a baseline scan (n=1), acquired in a non-treated rat.

[6] = microPET imaging, rhesus monkey; assay type: in vivo, rhesus monkey (Macaca mulatta); settings: baseline scan; for initial brain uptake, SUV value: total brain, IV 185 MBq
Experimental: A dynamic 120-min μPET scan with [^18F]Co. No. 1 or [^18F]T807 was performed with a Focus 220 μPET scanner on a rhesus monkey (6 y-old male Macaca mulatta, 7.6 kg), that was sedated with ketamine (Ketalar®) and xylazine (Rompun®) via intramuscular (IM) injection. During scanning the monkey received repeatedly an additional dose of ketamine/xylazine via IV injection. O2 saturation in blood, breathing frequency and heartbeat frequency were monitored during the entire experiment. The head of the animal was placed central in the field of view of the μPET scanner. Scans were acquired in list mode and Fourier rebinned in 24 time frames (4×15 s, 4×60 s, 5×180 s, 8×300 s, 3×600 s). Data were reconstructed using a 3D maximum a posteriori (3D-MAP) iterative reconstruction. TACs of the whole brain were generated using VOIs with PMOD software. Radioactivity concentration in the brain is expressed as SUV as a function of time after tracer injection. Scans were started immediately after IV injection of 185 MBq of [^18F]Co. No. 1 or [^18F]T807 via the vena saphena of the right leg. For the pre-treatment study, cold reference compound Co. No. 1 was dissolved in a mixture of 10% DMSO and 40% (2-hydroxypropyl)-o-cyclodextrin, filtered through a 0.22-μm membrane filter (Millex-GV, Millipore) prior to injection. Pre-treatment (n=1) was done by IV co-injection of 1 mg/kg of cold Co. No. 1 and radiotracer solution. μPET images were compared to a baseline scan (n=1), acquired in the non-treated monkey.

Sequence of extracted human tau aggregates (P10636 623-695 limits assumed): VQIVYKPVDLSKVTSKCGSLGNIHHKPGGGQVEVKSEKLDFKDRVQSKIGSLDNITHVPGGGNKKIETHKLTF
T1 sequence (P05067 672-713 limits assumed): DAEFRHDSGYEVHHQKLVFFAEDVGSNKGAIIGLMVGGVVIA

Cl.FCCCOc1ccc(Nc2ccc3cnccc3c2)nc1
melting point: 249.3 °C

Cl.FCCCNc1ccc(Nc2ccc3cnccc3c2)nc1
melting point: 285.1 °C

Cc1cnc(Nc2ccc3cnccc3c2)cc1F [Co. No. 1]
IC50 ([1]; displacement of [3H]-T808 (10 nM), read-out: pIC50, binding to extracted human tau aggregates (converted)): 5.75 nM | Ki ([1]; displacement of [3H]-T808, read-out: Ki corresponding to pIC50, extracted human tau (converted)): 2.4 nM | IC50 ([2]; displacement of [3H]-AV-45 (10 nM), read-out: pIC50, binding to extracted human amyloid-beta aggregates (converted)): 6610 nM | Ki ([2]; displacement of [3H]-AV-45, read-out: Ki corresponding to pIC50, extracted human amyloid-beta aggregates (converted)): 3200 nM | inhibition of [18F]Co. No. 1 binding ([3]; blocker 1 μM, human AD visual cortex slices): 99% | blocking of [3H]-THK-5351 binding to MAO-rich human tissue (MAO): blocked | effect on [18F]Co. No. 1 binding pattern in human AD slices [4]: entirely blocked | melting point: 182.53 °C

Cc1ccc(Nc2ccc3cnccc3c2)nc1F [Co. No. 2]
melting point: 203.3 °C

FCCc1ccc(Nc2ccc3cnccc3c2)nc1 [Co. No. 3]
melting point: 208.5 °C

FCOc1ccc(Nc2ccc3cnccc3c2)nc1 [Co. No. 4]
melting point: 173.1 °C

FCCNc1ccc(Nc2ccc3cnccc3c2)nc1 [Co. No. 5]
melting point: 191.4 °C

CN(CCF)c1ccc(Nc2ccc3cnccc3c2)nc1 [Co. No. 6]
melting point: 146.3 °C

FCCOc1ccc(Nc2ccc3cnccc3c2)nc1 [Co. No. 9]
melting point: 104.6 °C

CNc1ccc(-c2ccc3cc(OC[C@H](O)CF)ccc3n2)cn1 [THK-5351, reference compound]
blocking of [3H]-THK-5351 binding to MAO-rich human tissue (MAO): self-blocked

Cc1cnc(Nc2ccc3cnccc3c2)cc1[18F] [[^18F]Co. No. 1]
tracer binding in digital autoradiography ([3]; 7.4 kBq/500 μL per slice, human AD slices): high and selective binding to cortical tau-rich regions | tracer binding to tau pathology in human AD slices [4]: strong binding | SUV value at 60 min p.i. (brain wash-out) [5]: 0.2 | initial brain uptake, high intensity SUV value in the brain [5]: ~2.0 | effect of pre-treatment / chase with cold compound on brain uptake [5]: No self-blocking or self-chase effect | brain wash-out [6]: rapid wash-out | distribution over brain regions [6]: homogeneous distribution | initial brain uptake, SUV value [6]: ~5.4

[18F]c1ccc(-c2ccc3c(c2)[nH]c2ccncc23)cn1 [[^18F]T807, reference compound]
SUV value at 60 min p.i. (brain wash-out) [5]: 0.4 | initial brain uptake, high intensity SUV value in the brain [5]: ~1.8 | effect of pre-treatment / chase with cold compound on brain uptake [5]: Lower brain uptake during the baseline scan | brain wash-out [6]: slower | initial brain uptake, SUV value [6]: ~1.3

C#CCN(C)CCCOc1ccc(Cl)cc1Cl [clorgiline, reference compound]
effect on [18F]Co. No. 1 binding pattern in human AD slices [4]: maintained

C#CCN(C)[C@H](C)Cc1ccccc1 [selegiline, reference compound]
effect on [18F]Co. No. 1 binding pattern in human AD slices [4]: maintained
